Measured values published in article PMC11435058, “Synthesis of New Thiazole-Privileged Chalcones as Tubulin Polymerization Inhibitors with Potential Anticancer Activities” (Pharmaceuticals, 2024).
Like-named read-outs stand apart in the source and are kept apart here.

Tests used:
HCC-2998 = test: NCI-60 anticancer screen (SRB; single dose and five doses)
NCI/ADR-RES = test: as above; conditions: Homo sapiens
OVCAR-5 = test: as above; conditions: Homo sapiens
UACC-257 = test: as above; conditions: Homo sapiens
NCI-H522 = test: as above; conditions: Homo sapiens
U251 = test: as above; conditions: Homo sapiens
SK-OV-3 = test: as above; conditions: Homo sapiens
KM12 = test: as above; conditions: Homo sapiens
TK-10 = test: as above; conditions: Homo sapiens
HT29 = test: as above; conditions: Homo sapiens
SK-MEL-5 = test: as above; conditions: Homo sapiens
OVCAR-3 = test: cells; conditions: Homo sapiens
OVCAR-4 = test: NCI-60 anticancer screen (SRB; single dose and five doses); conditions: Homo sapiens
MDA-MB-435 = test: as above; conditions: Homo sapiens
UO-31 = test: as above; conditions: Homo sapiens
MALME-3M = test: as above; conditions: Homo sapiens
A549/ATCC = test: as above; conditions: Homo sapiens
MOLT-4 = test: as above; conditions: Homo sapiens
T-47D = test: as above; conditions: Homo sapiens, T47D
K-562 = test: as above; conditions: Homo sapiens
HCT-15 = test: as above; conditions: Homo sapiens
786-0 = test: as above; conditions: Homo sapiens
HL-60(TB) = test: as above; conditions: Homo sapiens
[1] = tested on: 60 human tumor cell lines panel; test: NCI-60 anticancer screen, whole panel (means and ranges over the cell lines); assay type: cell-based; conditions: for activity at 10 µM: Homo sapiens, 48 h, dose of 10 μM
LOX IMVI = test: NCI-60 anticancer screen (SRB; single dose and five doses); conditions: Homo sapiens
NCI-H226 = test: as above; conditions: Homo sapiens
SNB-19 = test: cells; conditions: Homo sapiens
HCT-116 = test: NCI-60 anticancer screen (SRB; single dose and five doses); conditions: Homo sapiens
MCF7 = test: as above; conditions: Homo sapiens
[2] = 48 h, read-out: Growth Percentage
[3] = five doses, mean graph midpoint over all cell lines

Cc1[nH]c(=S)sc1C(=O)/C=C/c1ccc([N+](=O)[O-])cc1 [2i, (E)-1-(4-Methyl-2-Thioxo-2,3-Dihydrothiazol-5-yl)-3-(4-Nitrophenyl)Prop-2-En-1-One]
GI50 (HCC-2998; Homo sapiens, HCC 2998): 9.37 µM | activity at 10 µM (HCC-2998; Homo sapiens, HCC 2998, 48 h, read-out: Growth Percentage): -11.9% | CC50 (HCC-2998; Homo sapiens, HCC 2998, read-out: LC50): 47 µM | TGI (HCC-2998; five-dose, Colon Cancer HCC-2998): 21.5 µM | GI50 (NCI/ADR-RES): 14.9 µM | activity at 10 µM (NCI/ADR-RES; [2]): -4.45% | CC50 (NCI/ADR-RES; read-out: LC50): 82.8 µM | IC (TGI) (NCI/ADR-RES; read-out: TGI): 35.2 µM | GI50 (OVCAR-5; OVCAR-5): 17.8 µM | activity at 10 µM (OVCAR-5; OVCAR-5, 48 h, read-out: Growth Percentage): 110% | CC50 (OVCAR-5; OVCAR-5, read-out: LC50): 58.2 µM | IC (TGI) (OVCAR-5; OVCAR-5, read-out: TGI): 32.2 µM | GI50 (UACC-257; UACC-257): 15.1 µM | activity at 10 µM (UACC-257; UACC-257, 48 h, read-out: Growth Percentage): 63.3% | CC50 (UACC-257; UACC-257, read-out: LC50): 61.4 µM | IC (TGI) (UACC-257; UACC-257, read-out: TGI): 30.4 µM | GI50 (NCI-H522; NCI-H522): 9.37 µM | activity at 10 µM (NCI-H522; NCI-H522, 48 h, read-out: Growth Percentage): 33% | CC50 (NCI-H522; NCI-H522, read-out: LC50): 51.5 µM | IC (TGI) (NCI-H522; NCI-H522, read-out: TGI): 22.5 µM | GI50 (U251; U-251): 4.1 µM | activity at 10 µM (U251; U-251, 48 h, read-out: Growth Percentage): 13.7% | CC50 (U251; U-251, read-out: LC50): 53 µM | IC (TGI) (U251; U-251, read-out: TGI): 17 µM | GI50 (SK-OV-3; SK-OV-3): 18.6 µM | activity at 10 µM (SK-OV-3; SK-OV-3, 48 h, read-out: Growth Percentage): 108% | CC50 (SK-OV-3; SK-OV-3, read-out: LC50): 76.9 µM | IC (TGI) (SK-OV-3; SK-OV-3, read-out: TGI): 37.8 µM | GI50 (KM12; KM12): 3.8 µM | activity at 10 µM (KM12; KM12, 48 h, read-out: Growth Percentage): -72.5% | CC50 (KM12; KM12, read-out: LC50): 40 µM | IC (TGI) (KM12; KM12, read-out: TGI): 13.6 µM | GI50 (TK-10; TK-10): 12.4 µM | activity at 10 µM (TK-10; TK-10, 48 h, read-out: Growth Percentage): 12.9% | CC50 (TK-10; TK-10, read-out: LC50): 51.3 µM | IC (TGI) (TK-10; TK-10, read-out: TGI): 25.3 µM | GI50 (HT29; HT-29): 10.7 µM | activity at 10 µM (HT29; HT-29, 48 h, read-out: Growth Percentage): 62.8% | CC50 (HT29; HT-29, read-out: LC50): 68.7 µM | IC (TGI) (HT29; HT-29, read-out: TGI): 27.1 µM | GI50 (SK-MEL-5; SK-MEL-5): 12 µM | activity at 10 µM (SK-MEL-5; SK-MEL-5, 48 h, read-out: Growth Percentage): 53.8% | CC50 (SK-MEL-5; SK-MEL-5, read-out: LC50): 49.7 µM | IC (TGI) (SK-MEL-5; SK-MEL-5, read-out: TGI): 24.4 µM | GI50 (OVCAR-3; OVCAR-3): 2.22 µM | activity at 10 µM (OVCAR-3; OVCAR-3, 48 h, read-out: Growth Percentage): -6% | CC50 (OVCAR-3; OVCAR-3, read-out: LC50): 16.6 µM | IC (TGI) (OVCAR-3; OVCAR-3, read-out: TGI): 5.28 µM | GI50 (OVCAR-4; OVCAR-4): 14.9 µM | activity at 10 µM (OVCAR-4; OVCAR-4, 48 h, read-out: Growth Percentage): 49.2% | CC50 (OVCAR-4; OVCAR-4, read-out: LC50): 53.8 µM | IC (TGI) (OVCAR-4; OVCAR-4, read-out: TGI): 28.3 µM | GI50 (MDA-MB-435; MDA-MB-435): 7.39 µM | activity at 10 µM (MDA-MB-435; MDA-MB-435, 48 h, read-out: Growth Percentage): 3.76% | CC50 (MDA-MB-435; MDA-MB-435, read-out: LC50): 50.9 µM | IC (TGI) (MDA-MB-435; MDA-MB-435, read-out: TGI): 21.1 µM | GI50 (UO-31; UO-31): 4.86 µM | activity at 10 µM (UO-31; UO-31, 48 h, read-out: Growth Percentage): -41.3% | IC (TGI) (UO-31; UO-31, read-out: TGI): 18.8 µM | GI50 (MALME-3M): 13.7 µM | activity at 10 µM (MALME-3M; [2]): 75.2% | CC50 (MALME-3M; read-out: LC50): 70.8 µM | IC (TGI) (MALME-3M; read-out: TGI): 31.1 µM | GI50 (A549/ATCC; A549): 17 µM | activity at 10 µM (A549/ATCC; A549, 48 h, read-out: Growth Percentage): 75.7% | CC50 (A549/ATCC; A549, read-out: LC50): 69 µM | IC (TGI) (A549/ATCC; A549, read-out: TGI): 34.2 µM | GI50 (MOLT-4; MOLT-4): 3.79 µM | activity at 10 µM (MOLT-4; MOLT-4, 48 h, read-out: Growth Percentage): 14.2% | CC50 (MOLT-4; MOLT-4, read-out: LC50): > 100 µM | IC (TGI) (MOLT-4; MOLT-4, read-out: TGI): > 100 µM | GI50 (T-47D): 4.96 µM | activity at 10 µM (T-47D; [2]): 44.3% | CC50 (T-47D; read-out: LC50): > 100 µM | IC (TGI) (T-47D; read-out: TGI): 25.7 µM | GI50 (K-562; K562): 3.5 µM | activity at 10 µM (K-562; K562, 48 h, read-out: Growth Percentage): 12.3% | CC50 (K-562; K562, read-out: LC50): > 100 µM | IC (TGI) (K-562; K562, read-out: TGI): > 100 µM | GI50 (HCT-15; HCT-15): 2.46 µM | activity at 10 µM (HCT-15; HCT-15, 48 h, read-out: Growth Percentage): -62.1% | CC50 (HCT-15; HCT-15, read-out: LC50): 33.7 µM | IC (TGI) (HCT-15; HCT-15, read-out: TGI): 7.86 µM | GI50 (786-0; 786-0): 3.99 µM | activity at 10 µM (786-0; 786-0, 48 h, read-out: Growth Percentage): 25.6% | CC50 (786-0; 786-0, read-out: LC50): 54 µM | IC (TGI) (786-0; 786-0, read-out: TGI): 17.6 µM | GI50 (HL-60(TB); HL-60): 3.05 µM | activity at 10 µM (HL-60(TB); HL-60, 48 h, read-out: Growth Percentage): -5.39% | CC50 (HL-60(TB); HL-60, read-out: LC50): > 100 µM | IC (TGI) (HL-60(TB); HL-60, read-out: TGI): 16.9 µM | activity at 10 µM ([1]; mean over the tested cell lines, read-out: Mean growth percentage): 25.2% | activity at 10 µM ([1]; range over the cell lines, read-out: growth percentages against most of the tested cells (lowest to highest)): -86.2 to 108% | Log10GI50 _MID [1, 3]: -5.13 Molar | Log10LC50 _MID [1, 3]: -4.25 Molar | Log10TGI _MID [1, 3]: -4.62 Molar | GI50 (LOX IMVI): 1.85 µM | activity at 10 µM (LOX IMVI; [2]): -86.2% | CC50 (LOX IMVI; read-out: LC50): 8.91 µM | IC (TGI) (LOX IMVI; read-out: TGI): 4.06 µM | GI50 (NCI-H226; NCI-H226): 15.6 µM | activity at 10 µM (NCI-H226; NCI-H226, 48 h, read-out: Growth Percentage): 91.4% | CC50 (NCI-H226; NCI-H226, read-out: LC50): > 100 µM | IC (TGI) (NCI-H226; NCI-H226, read-out: TGI): 42.1 µM | GI50 (SNB-19; SNB-19): 5.42 µM | activity at 10 µM (SNB-19; SNB-19, 48 h, read-out: Growth Percentage): 41.2% | CC50 (SNB-19; SNB-19, read-out: LC50): 43.2 µM | IC (TGI) (SNB-19; SNB-19, read-out: TGI): 18.3 µM | GI50 (HCT-116; HCT-116): 2.78 µM | activity at 10 µM (HCT-116; HCT-116, 48 h, read-out: Growth Percentage): -47.8% | CC50 (HCT-116; HCT-116, read-out: LC50): 44.3 µM | IC (TGI) (HCT-116; HCT-116, read-out: TGI): 7.89 µM | GI50 (MCF7; MCF7): 2.67 µM | activity at 10 µM (MCF7; MCF7, 48 h, read-out: Growth Percentage): 5.51% | CC50 (MCF7; MCF7, read-out: LC50): 51.3 µM | IC (TGI) (MCF7; MCF7, read-out: TGI): 11.7 µM
